In one series the test system is collagen type 1. In words: Collagen type 1 secretion in activated hepatic stellate cells (western blot). The note with it: overnight incubation, FIGS. 35a & 35b. Type of series: cell-based. As to the method:
HSC cells were treated with the drugs and incubated overnight. The conditioned media was taken out and the secreted proteins were extracted using TCA-acetone method. The cells were harvested for western blot analysis and 1% SDS was added to the sample. Proteins were detected by using 1:500 dilution of polyclonal antibody to collagen type 1 (Abcam; AB292) and 1:1000 dilutions of goat anti-rabbit IgG conjugated to horseradish peroxidase (Bangalore GENEI). The blots were developed by using substrate TMB/H2O2. Loading control was performed using the β-actin house keeping gene expression level.
On the technique in general: A western blot detects proteins with antibodies after separation by electrophoresis.

In series [1] the test system is human hepatocytes (HepG2). In words: Selectivity of apoptosis induction: hepatocytes. It is filed as cell-based. The following applies: HepG2, PI staining.
Series [2] concerns Hepatic stellate cells (LX2). In words: Induction of apoptosis in hepatic stellate cells (LX2), propidium iodide staining. The note with it: 8 hours, PI staining. Type of series: cell-based. The source says:
Propidium iodide (PI) has been widely used to measure apoptosis in different experimental systems (Eur. J. Pharmacol., 2003, 473, 117-125; Br. J. Pharmacol., 2009, 158, 1720-1734). […] Next, cells were washed with PBS for 2 times to remove unbound PI and the fluorescence images were acquired with DP71 camera adapted to an Olympus IX71 microscope. Apoptotic cells were detected by propidium iodide (PI) staining and % apoptotic cells per field were estimated. Number of PI positive cells and total number of cells were counted from the images and plotted as percentage of apoptotic cells per field.

Series [3] addresses T1, Rat lens Aldose reductase (Rattus norvegicus, UniProt P07943).
T1 construct: Rat lens Aldose reductase is used; from tissue; host or cells: rat lens
Put plainly: Aldose reductase inhibitory activity. Type of series: biochemical. The note with it: rat lens enzyme, 0.2 mM NADPH, pH 6.2, 25° C. How it is done:
Rat lens Aldose reductase is used. Test compound and/or vehicle is preincubated with 3000 μg/ml enzyme (J. Enzyme Inhib. 1993, 7, 249-256; Biol. Pharm. Bull. 1994, 17, 458-459) and 0.2 mM NADPH in phosphate buffer pH 6.2 for 15 minutes at 25° C. The reaction is initiated by addition of 10 mM DL-glyceraldehyde and incubated for another 20 minutes. Determination of the amount of NADPH remained is read spectrophotometrically. Compounds are screened at 10 μM. Since enzyme activity may change from lot to lot, the concentration used will be adjusted if necessary.

A further series has as its system 3T3-L1 fibroblasts. Put plainly: Adipogenesis in 3T3-L1 mouse fibroblast (oil red O staining). Type of series: cell-based. The following applies: 1 μM or 10 μM, 7 days. As to the method: 3T3-L1 fibroblasts were seeded at a concentration of 10,000 cells/well in 24 well tissue culture plates in a total volume of 1 mL Dulbecco's Modified Eagle Medium (DMEM media) containing 10% fetal bovine serum, penicillin and streptomycin. […] After every two days, the media contents were replaced with fresh media and the drug. This process was carried out for 7 days. After 7 days of treatment, the cells were fixed in 10% formalin for 1 hour at […], stained with oil red 0 solution for 10 minutes and washed 6 times with 1×PBS to remove the excess stain. The plates were dried and visualized under 40× objective using Nikon E200 microscope and the pictures were taken by Nikon DXM 1200C digital camera.

Series [4] concerns human endothelial cells (ECV 304). In words: Selectivity of apoptosis induction: endothelial cells. Type of series: cell-based. The note with it: ECV 304, PI staining. As to the method:
(§1) Propidium iodide (PI) has been widely used to measure apoptosis in different experimental systems (Eur. J. Pharmacol., 2003, 473, 117-125; Br. J. Pharmacol., 2009, 158, 1720-1734). The LX2 cells were treated with vehicle (DMSO), staurosporine (0.1 nM), compound of formula (B) (2 μM), compound of formula (C) (2 μM) for 8 hours followed by propidium iodide (PI) for 10 minute. Next, cells were washed with PBS for 2 times to remove unbound PI and the fluorescence images were acquired with DP71 camera adapted to an Olympus IX71 microscope. Apoptotic cells were detected by propidium iodide (PI) staining and % apoptotic cells per field were estimated. Number of PI positive cells and total number of cells were counted from the images and plotted as percentage of apoptotic cells per field.
(§2) The methodology adopted is same as in Experiment-7 above.
(§3) Apoptotic cells were detected by propidium iodide (PI) staining and % apoptotic cells per field were estimated.

The target of series [5] is T2, Matrix metalloproteinase-2 (MMP-2) (Homo sapiens, UniProt P08253).
T2 sequence (P08253 110-660): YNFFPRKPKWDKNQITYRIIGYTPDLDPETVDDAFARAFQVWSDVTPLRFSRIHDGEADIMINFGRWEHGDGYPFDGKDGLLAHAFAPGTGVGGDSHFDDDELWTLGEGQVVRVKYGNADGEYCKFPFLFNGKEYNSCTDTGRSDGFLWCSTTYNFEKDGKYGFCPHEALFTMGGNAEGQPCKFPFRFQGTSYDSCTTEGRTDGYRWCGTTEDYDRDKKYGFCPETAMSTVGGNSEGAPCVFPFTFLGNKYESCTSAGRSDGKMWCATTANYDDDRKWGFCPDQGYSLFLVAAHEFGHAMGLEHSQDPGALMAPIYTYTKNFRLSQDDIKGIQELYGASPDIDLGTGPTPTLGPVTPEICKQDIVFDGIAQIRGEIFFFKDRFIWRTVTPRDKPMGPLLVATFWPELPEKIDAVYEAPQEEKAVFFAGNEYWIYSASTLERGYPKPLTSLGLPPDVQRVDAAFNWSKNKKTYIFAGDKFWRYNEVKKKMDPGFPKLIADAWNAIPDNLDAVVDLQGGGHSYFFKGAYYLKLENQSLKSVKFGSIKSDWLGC
Put plainly: Matrix metalloproteinase-2 (MMP-2) inhibitory activity. It is filed as biochemical. As to the method:
3. Matrix Metalloproteinase-2 (MMP-2) Inhibitory Activity (at 10 μM)
MMP-2 enzymes are implicated in lung metastasis and there inhibition is useful to prevent or treat lung metastasis (Journal of Ethnopharmacology 2011, 133, 426-433).

Series [6] deals with human fibroblast cells isolated from skin biopsies. In words: Selectivity of apoptosis induction: skin fibroblasts. It is filed as cell-based. The following applies: PI staining. As to the method:
as §1, §2, §3

For series [7] the following is noted: 48 weeks, 4 mg twice daily; Hepatology, 2003, 38, 1008-1017; cited from earlier work.

Each structure is given as a SMILES string.

As a reminder, the IC50 is the midpoint of a concentration-inhibition curve. Broadly, the inhibition is the change of the read-out against control, counted positive when it falls. A high value points to a response far below the control. For the compound `N[C@@H](Cc1ccc(Oc2ccc(CC3SC(=O)NC3=O)cc2)cc1)C(=O)O` (stereo partly drawn) [Compound of formula (B), (2S)-2-Amino-3-(4-{4-[(2,4-dioxo-1,3-thiazolidin-5-yl)methyl]phenoxy}phenyl)propanoic acid], the “Collagen secretion by activated hepatic stellate cells” value with collagen type 1 is reported as “markedly decreased”. Also, the “apoptosis vs vehicle (DMSO)” value in series [1], in [4] and in series [6] was “no significant apoptosis” in each case. The “% apoptotic cells per field” value in series [2] (2 μM) is 6±0.40%. This compound also had an IC50 in series [3] of 4.92 µM. Besides, the “adipogenesis (intracellular lipids stained with oil red O)” value with 3T3-L1 fibroblasts was “did not induce adipogenesis”. Also, the inhibition at 10 µM in series [5] turned out to be 59%.

Turning to `O=C(O)Cc1ccc(Oc2ccc(CC3SC(=O)NC3=O)cc2)cc1` (stereo not shown) [Compound of formula (C), (4-{4-[(2,4-Dioxo-1,3-thiazolidin-5-yl)methyl]phenoxy}phenyl)acetic acid], the “Collagen secretion by activated hepatic stellate cells” value in the series on collagen type 1 is “markedly decreased”. In addition, the “apoptosis vs vehicle (DMSO)” value in series [1], in [4] and in series [6] was “no significant apoptosis” in each case. Also, the “% apoptotic cells per field” value in series [2] (2 μM) came out at 7.5±0.64%. The compound further returned a 50% inhibitory concentration (IC50) in series [3] of 1.43 µM. For the same compound, the “adipogenesis (intracellular lipids stained with oil red O)” value in the series with 3T3-L1 fibroblasts is “did not induce adipogenesis”. The inhibition at 10 µM in [5] was determined as 16%.

As for `CN(CCOc1ccc(CC2SC(=O)NC2=O)cc1)c1ccccn1` (stereo not shown) [Rosiglitazone], in series [7], the “median weight gain increase” value was 7.3% and the “patients in whom weight gain occurred” value is recorded as 67%.

For the compound `CN[C@@H]1C[C@H]2O[C@@](C)([C@@H]1OC)n1c3ccccc3c3c4c(c5c6ccccc6n2c5c31)C(=O)NC4` [staurosporine, reference compound], in series [2] (0.1 nM), the “% apoptotic cells per field” value was “approximately 23%”.

Source of the values: patent US20140187594A1, “DIPHENYL ETHER COMPOUNDS FOR THE TREATMENT OF LIVER, LUNG DISORDERS, DIABETIC COMPLICATIONS AND CARDIOVASCULAR DISEASES” (ORCHID CHEMICALS AND PHARMACEUTICALS LTD, priority 2010, published 2014).
